# Data as given in patent US20060069132A1, “Azolecarboxamide herbicides” (priority 2004, published 2006).
# Tests used:
# wheat = assay: Test C postemergence herbicide test; type: in vivo, Triticum aestivum
# Method: At the same time, plants selected from these crop and weed species and also winter barley (Hordeum vulgare L.), blackgrass (Alopecurus myosuroides Huds.), canarygrass (Phalaris minor Retz.), chickweed (Stellaria media (L.) Vill.), downy bromegrass (Bromus tectorum L.), green foxtail (Setaria viridis (L.) Beauv.), Italian ryegrass (Lolium multiflorum Lam.), wheat (Triticum aestivum L.), wild oat (Avenafatua L.) and windgrass (Apera spica-venti (L.) Beauv.) were treated with postemergence applications of some of the test chemicals formulated in the same manner. Plants ranged in height from 2 to 18 cm (1- to 4-leaf stage) for postemergence treatments. Plant species in the flooded paddy test consisted of rice (Oryza sativa), smallflower umbrella sedge (Cyperus difformis L.), ducksalad (Heteranthera limosa (Sw.) Willd.) and barnyardgrass (Echinochloa crus-galli (L.) Beauv.) grown to the 2-leaf stage for testing. Treated plants and controls were maintained in a greenhouse for 12 to 14 days, after which time all species were compared to controls and visually evaluated. Plant response ratings, summarized in Table C, are based on a scale of 0 to 100 where 0 is no effect and 100 is complete control. A dash (-) response means no test result.
# johnsongrass = assay: Test E pre-/postemergence herbicide test; type: in vivo, Sorghum halepense; conditions: Preemergence
# Excerpt: (§1) Seeds of plant species selected from bipinnate beggarticks (Bidens bipinnata L.), hairy beggarticks (Bidens radiata Thuill.), bermudagrass (Cynodon dactylon (L.) Pers.), Surinam grass (Urochloa decumbens (Staph) R. D. Webster, previously named Brachiaria decumbens Stapf), large crabgrass (Digitaria sanguinalis (L.) Scop.), green foxtail (Setaria viridis (L.) P. Beauv.), goosegrass (Eleusine indica (L.) Gaertn.), johnsongrass (Sorghum halepense (L.) Pers.), kochia (Kochia scoparia (L.) Schrad.), pitted morningglory (Ipomoea lacunosa L.), purple nutsedge (Cyperus rotundus L.), common ragweed (Ambrosia elatior L.), mustard (Brassica nigra (L.) W. D. J. Koch), guineagrass (Panicum maximum Jacq.), dallisgrass (Paspalum dilatatum Poir.), barnyardgrass (Echinochloa crus-galli (L). P. Beauv.), southern sandbur (Cenchrus echinatus L.), common sowthistle (Sonchus oleraceous L.), prickly sida (Sida spinosa L.), Italian ryegrass (Lolium multiflorum Lam.), common purslane (Portulaca oleracea L.), broadleaf signalgrass (Brachiaria platyphylla (Griseb.) Nash), common groundsel (Senecio vulgaris L.), common chickweed (Stellaria media (L.) Vill/Cyr.), tropical spiderwort (Commelina benghalensis L.), annual bluegrass (Poa annua L.), downy bromegrass (Bromus tectorum L.), itchgrass (Rottboellia cochinchinensis (L.) L.f.), quackgrass (Elytrigia repens (L.) Nevski), Canada horseweed (Erigeron Canadensis L.), field bindweed (Convolvulus arvensis L.), spotted spurge (Euphorbia maculata L.), common mallow (Malva sylvestris (=s silvestris) L.), and Russian thistle (Salsola kali L. ssp. Ruthenica (Iljin) Soo) were planted and treated preemergence with test chemicals formulated in a non-phytotoxic solvent mixture which included a surfactant.
# (§2) At the same time, plants selected from these weed species were treated with postemergence applications of some of the test chemicals formulated in the same manner. Plants ranged in height from 2 to 18 cm (1- to 4-leaf stage) for postemergence treatments. Treated plants and controls were maintained in a greenhouse for 12 to 14 days, after which time all species were compared to controls and visually evaluated. Plant response ratings, summarized in Table E, are based on a scale of 0 to 100 where 0 is no effect and 100 is complete control. A dash (-) response means no test result.
# tropical spiderwort = assay: Test E pre-/postemergence herbicide test; type: in vivo, Commelina benghalensis; conditions: Preemergence
# Excerpt: as §1, §2
# quackgrass = assay: Test E pre-/postemergence herbicide test; type: in vivo, Elytrigia repens; conditions: Preemergence
# Excerpt: as §1, §2
# broadleaf signalgrass = assay: Test E pre-/postemergence herbicide test; type: in vivo, Brachiaria platyphylla; conditions: Preemergence
# Excerpt: as §1, §2
# purple nutsedge = assay: Test E pre-/postemergence herbicide test; type: in vivo, Cyperus rotundus; conditions: Preemergence
# Excerpt: as §1, §2
# Surinam grass = assay: Test E pre-/postemergence herbicide test; type: in vivo, Urochloa decumbens; conditions: Preemergence
# Excerpt: as §1, §2
# mustard = assay: Test E pre-/postemergence herbicide test; type: in vivo, Brassica nigra; conditions: Preemergence
# Excerpt: as §1, §2
# common chickweed = assay: Test E pre-/postemergence herbicide test; type: in vivo, Stellaria media; conditions: Preemergence
# Excerpt: as §1, §2
# barnyardgrass = assay: Test E pre-/postemergence herbicide test; type: in vivo, Echinochloa crus-galli; conditions: Preemergence
# Excerpt: as §1, §2
# bipinnate beggarticks = assay: Test E pre-/postemergence herbicide test; type: in vivo, Bidens bipinnata; conditions: Preemergence
# Excerpt: as §1, §2
# [1] = Postemergence, 250 g ai/ha, scale 0 to 100, 0 no effect, 100 complete control
# [2] = postemergence, 125 g ai/ha, scale 0 to 100
# [3] = postemergence, 62 g ai/ha, scale 0 to 100
# [4] = Postemergence, 500 g ai/ha, scale 0 to 100, 0 no effect, 100 complete control
# [5] = 250 g ai/ha, scale 0 (no effect) to 100 (complete control)
# [6] = 500 g ai/ha, scale 0 (no effect) to 100 (complete control)
Compound,"Plant response rating, Wheat (wheat; [1])","Plant response rating, Wheat (wheat; [2])","Plant response rating, Wheat (wheat; [3])","Plant response rating, Johnsongrass (johnsongrass; 62 g ai/ha, scale 0 to 100)","Plant response rating, Johnsongrass (johnsongrass; 125 g ai/ha, scale 0 to 100)","Plant response rating, Johnsongrass (johnsongrass; [5])","Plant response rating, Johnsongrass (johnsongrass; [6])","Plant response rating, Spiderwort (tropical spiderwort; [5])","Plant response rating, Spiderwort (tropical spiderwort; [6])","Plant response rating, Quackgrass (quackgrass; 62 g ai/ha, scale 0 to 100)","Plant response rating, Quackgrass (quackgrass; 125 g ai/ha, scale 0 to 100)","Plant response rating, Quackgrass (quackgrass; [5])","Plant response rating, Quackgrass (quackgrass; [6])","Plant response rating, Signalgrass (broadleaf signalgrass; 62 g ai/ha, scale 0 to 100)","Plant response rating, Signalgrass (broadleaf signalgrass; 125 g ai/ha, scale 0 to 100)","Plant response rating, Signalgrass (broadleaf signalgrass; [5])","Plant response rating, Signalgrass (broadleaf signalgrass; [6])","Plant response rating, Surinam Grass (Surinam grass; 125 g ai/ha, scale 0 to 100)","Plant response rating, Surinam Grass (Surinam grass; [6])","Plant response rating, Black Mustard (mustard; 62 g ai/ha, scale 0 to 100)",further results
CCn1nc(C(C)(C)C)cc1C(=O)Nc1cccc(OC(F)F)c1 [Compound 332],35,30,30,,,,,,,,,,,,,,,,,,"Wheat plant response rating (wheat; Postemergence, 500 g ai/ha, scale 0 to 100): 35"
CCn1nc(C(C)(C)C)cc1C(=O)Nc1cc(C(=S)N(C)C)ccn1 [Compound 334],75,75,65,,,,,,,,,,,,,,,,,,
CCNC(=O)c1ccc(F)c(NC(=O)c2c3c(nn2CC)C(C)(C)CC3)c1 [Compound 353],30,15,10,,,,,,,,,,,,,,,,,,"Plant response rating, Wheat (wheat; [4]): 35"
CCOC(=O)c1cccc(NC(=O)c2nn(C(C)(C)CC)nc2CC)c1 [Compound 375],,30,25,,,,,,,,,,,,,,,,,,
CCc1nn(C(C)(C)C)nc1C(=O)Nc1cccc(C(=O)N(C)CC)c1 [Compound 384],,20,10,40,75,80,85,60,95,50,70,85,85,10,70,80,80,60,95,60,"Plant response rating, Spiderwort (tropical spiderwort; 125 g ai/ha, scale 0 to 100): 30; Plant response rating, Nutsedge, Purple (purple nutsedge; 62 g ai/ha, scale 0 to 100): 60; Plant response rating, Black Mustard (mustard; 125 g ai/ha, scale 0 to 100): 80; Plant response rating, Black Mustard (mustard; [5]): 85; Plant response rating, Black Mustard (mustard; [6]): 100; Plant response rating, Chickweed (common chickweed; 62 g ai/ha, scale 0 to 100): 75; Plant response rating, Chickweed (common chickweed; 125 g ai/ha, scale 0 to 100): 95; Plant response rating, Chickweed (common chickweed; [5]): 95; Plant response rating, Chickweed (common chickweed; [6]): 100; Plant response rating, Barnyardgrass (barnyardgrass; 62 g ai/ha, scale 0 to 100): 40; Plant response rating, Barnyardgrass (barnyardgrass; 125 g ai/ha, scale 0 to 100): 80; Plant response rating, Barnyardgrass (barnyardgrass; [5]): 85; Plant response rating, Barnyardgrass (barnyardgrass; [6]): 100; Plant response rating, Beggarticks, Bip. (bipinnate beggarticks; 62 g ai/ha, scale 0 to 100): 10; Plant response rating, Beggarticks, Bip. (bipinnate beggarticks; [5]): 100"
Cc1nn(C(C)(C)C)nc1C(=O)Nc1cccc(C(=O)N2CC=CC2)c1 [Compound 393],,40,35,30,60,60,80,100,100,50,50,60,60,0,30,75,85,20,70,10,"Plant response rating, Spiderwort (tropical spiderwort; 125 g ai/ha, scale 0 to 100): 100; Plant response rating, Nutsedge, Purple (purple nutsedge; [5]): 20; Plant response rating, Nutsedge, Purple (purple nutsedge; [6]): 100; Plant response rating, Black Mustard (mustard; 125 g ai/ha, scale 0 to 100): 80; Plant response rating, Black Mustard (mustard; [5]): 95; Plant response rating, Black Mustard (mustard; [6]): 95; Plant response rating, Chickweed (common chickweed; 125 g ai/ha, scale 0 to 100): 60; Plant response rating, Chickweed (common chickweed; [5]): 100; Plant response rating, Chickweed (common chickweed; [6]): 100; Plant response rating, Barnyardgrass (barnyardgrass; 62 g ai/ha, scale 0 to 100): 0; Plant response rating, Barnyardgrass (barnyardgrass; 125 g ai/ha, scale 0 to 100): 60; Plant response rating, Barnyardgrass (barnyardgrass; [5]): 80; Plant response rating, Barnyardgrass (barnyardgrass; [6]): 80; Plant response rating, Beggarticks, Bip. (bipinnate beggarticks; 62 g ai/ha, scale 0 to 100): 30; Plant response rating, Beggarticks, Bip. (bipinnate beggarticks; 125 g ai/ha, scale 0 to 100): 100; Plant response rating, Beggarticks, Bip. (bipinnate beggarticks; [5]): 100; Plant response rating, Beggarticks, Bip. (bipinnate beggarticks; [6]): 100"
CCc1nn(C(C)(C)C)nc1C(=O)Nc1cccc(C(=S)N(C)C)c1 [Compound 395],,,,30,80,90,90,60,90,60,80,85,90,10,75,85,90,75,90,40,"Plant response rating, Nutsedge, Purple (purple nutsedge; 125 g ai/ha, scale 0 to 100): 50; Plant response rating, Nutsedge, Purple (purple nutsedge; [5]): 70; Plant response rating, Nutsedge, Purple (purple nutsedge; [6]): 80; Plant response rating, Black Mustard (mustard; 125 g ai/ha, scale 0 to 100): 60; Plant response rating, Black Mustard (mustard; [5]): 90; Plant response rating, Black Mustard (mustard; [6]): 95; Plant response rating, Chickweed (common chickweed; 125 g ai/ha, scale 0 to 100): 90; Plant response rating, Chickweed (common chickweed; [5]): 100; Plant response rating, Chickweed (common chickweed; [6]): 100; Plant response rating, Barnyardgrass (barnyardgrass; 62 g ai/ha, scale 0 to 100): 50; Plant response rating, Barnyardgrass (barnyardgrass; 125 g ai/ha, scale 0 to 100): 60; Plant response rating, Barnyardgrass (barnyardgrass; [5]): 95; Plant response rating, Barnyardgrass (barnyardgrass; [6]): 95; Plant response rating, Beggarticks, Bip. (bipinnate beggarticks; 62 g ai/ha, scale 0 to 100): 40; Plant response rating, Beggarticks, Bip. (bipinnate beggarticks; 125 g ai/ha, scale 0 to 100): 100; Plant response rating, Beggarticks, Bip. (bipinnate beggarticks; [5]): 100; Plant response rating, Beggarticks, Bip. (bipinnate beggarticks; [6]): 100"
C=CCNC(=O)c1cccc(NC(=O)c2nn(C(C)(C)C)nc2CC)c1 [Compound 414],,10,10,,,,,,,,,,,,,,,,,,"Plant response rating, Wheat (wheat; [4]): 30"
